Measured values as given in patent publication US20040137389A1, “Heat-developable light-sensitive material” (priority 2002, published 2004).

Assay: Difference between light absorption intensity before and after heat development (absorbance at 415 nm), Examples 1 and 2
Conditions: A/B×100 (after/before heat development, silver iodide-free sample as base), development 24 seconds, Example 1
Experimental: (§1) Each sample was thermally developed with Fuji Medical Dry Laser Imager FM-DPL Model in which the temperatures of four panel heaters were set at 112° C., 118° C., 120° C. and 120° C., respectively and which the overall development time was set at 24 seconds.
Using a spectral photometer U-4100 (manufactured by Hitachi) equipped with an integrating sphere, the spectral absorbance of each sample was measured. […] The change rate of the absorbance at 415 nm of each of samples 11 to 20 before heat development and that after heat development was measured. Apart from the above samples, silver iodide-free sample was prepared, and the absorbance thereof at 415 nm was used as a base standard. The absorbance reduction rate of each sample was computed according to the formula mentioned below.
Absorbance reduction rate (%)=A/B×100
(§2) A=(absorbance of a sample after heat development)−(absorbance of a silver iodide-free sample after heat development)
(§3) B=(absorbance of the sample before heat development)−(absorbance of a silver iodide-free sample before heat development)

Row | SMILES | Absorbance Change Rate (%)
1 | CC(C)c1ccc2cnncc2c1 [6-isopropylphthalazine] | may lower the absorption intensity

Assay: not given
Conditions: Hammett's substituent constants of Y11 to Y14; constants from Chemical Review, 1991, Vol. 91; cited from earlier work

Row | SMILES | Total Sum of σ p
2 | Cc1cccc2c(=O)[nH]ncc12 [Sample I-1] | −0.17
3 | Cc1ccc2c(=O)[nH]ncc2c1 [Sample I-2] | −0.17
4 | Cc1ccc2cn[nH]c(=O)c2c1 [Sample I-3] | −0.17
5 | Cc1cccc2cn[nH]c(=O)c12 [Sample I-4] | −0.17
6 | CCc1cccc2c(=O)[nH]ncc12 [Sample I-5] | −0.15
7 | CCc1ccc2c(=O)[nH]ncc2c1 [Sample I-6] | −0.15
8 | CCc1ccc2cn[nH]c(=O)c2c1 [Sample I-7] | −0.15
9 | CCc1cccc2cn[nH]c(=O)c12 [Sample I-8] | −0.15
10 | CCCc1ccc2c(=O)[nH]ncc2c1 [Sample I-9] | −0.13
11 | CCCc1cccc2c(=O)[nH]ncc12 [Sample I-10] | −0.13
12 | CCCc1ccc2cn[nH]c(=O)c2c1 [Sample I-11] | −0.13
13 | CCCc1cccc2cn[nH]c(=O)c12 [Sample I-12] | −0.13
14 | CC(C)c1ccc2c(=O)[nH]ncc2c1 [Sample I-13] | −0.15
15 | CCCCc1ccc2c(=O)[nH]ncc2c1 [Sample I-14] | −0.16
16 | O=c1[nH]ncc2cc(-c3ccccc3)ccc12 [Sample I-15] | −0.01
17 | CC(C)Cc1ccc2c(=O)[nH]ncc2c1 [Sample I-16] | −0.12
18 | CC(C)(C)c1ccc2c(=O)[nH]ncc2c1 [Sample I-17] | −0.20
19 | Cc1cc2cn[nH]c(=O)c2cc1C [Sample I-18] | −0.34
20 | Cc1ccc2c(=O)[nH]ncc2c1C [Sample I-19] | −0.34
21 | Cc1cc2c(=O)[nH]ncc2c(C)c1C [Sample I-20] | −0.51
22 | CCc1cc2cn[nH]c(=O)c2cc1C [Sample I-21] | −0.32
23 | CC(C)c1ccc2cn[nH]c(=O)c2c1 [Sample I-22] | −0.15
24 | CCCCc1ccc2cn[nH]c(=O)c2c1 [Sample I-23] | −0.16
25 | CCC(C)c1ccc2cn[nH]c(=O)c2c1 (stereo not shown) [Sample I-24] | −0.12
26 | CC(C)Cc1ccc2cn[nH]c(=O)c2c1 [Sample I-25] | −0.12
27 | COc1cccc2c(=O)[nH]ncc12 [Sample I-26] | −0.27

Row | SMILES | Total Sum of σ p
28 | COc1ccc2c(=O)[nH]ncc2c1 [Sample I-27] | −0.27
29 | COc1ccc2cn[nH]c(=O)c2c1 [Sample I-28] | −0.27
30 | COc1cccc2cn[nH]c(=O)c12 [Sample I-29] | −0.27
31 | CCOc1cccc2c(=O)[nH]ncc12 [Sample I-30] | −0.24
32 | CCOc1ccc2c(=O)[nH]ncc2c1 [Sample I-31] | −0.24
33 | CCOc1ccc2cn[nH]c(=O)c2c1 [Sample I-32] | −0.24
34 | CCOc1cccc2cn[nH]c(=O)c12 [Sample I-33] | −0.24
35 | CCCOc1cccc2c(=O)[nH]ncc12 [Sample I-34] | −0.32
36 | CCCOc1ccc2c(=O)[nH]ncc2c1 [Sample I-35] | −0.32
37 | CCCOc1ccc2cn[nH]c(=O)c2c1 [Sample I-36] | −0.32
38 | CCCOc1cccc2cn[nH]c(=O)c12 [Sample I-37] | −0.32
39 | CC(C)Oc1ccc2c(=O)[nH]ncc2c1 [Sample I-38] | −0.33
40 | CCCCOc1ccc2c(=O)[nH]ncc2c1 [Sample I-39] | −0.34
41 | COc1cc2cn[nH]c(=O)c2cc1OC [Sample I-40] | −0.54
42 | COc1ccc2c(=O)[nH]ncc2c1OC [Sample I-41] | −0.54
43 | COc1cc2c(=O)[nH]ncc2c(OC)c1OC [Sample I-42] | −0.81
44 | O=c1[nH]ncc2cc(Oc3ccccc3)ccc12 [Sample I-47] | −0.03
45 | O=c1[nH]ncc2ccc(Oc3ccccc3)cc12 [Sample I-48] | −0.03
46 | CCN(CC)c1ccc2c(=O)[nH]ncc2c1 [Sample I-59] | −0.72
47 | Nc1ccc2c(=O)[nH]ncc2c1 [Sample I-60] | −0.66
48 | CC(=O)Nc1ccc2c(=O)[nH]ncc2c1 [Sample I-61] | 0.00
49 | O=C(Nc1ccc2c(=O)[nH]ncc2c1)c1ccccc1 [Sample I-62] | −0.19
50 | O=c1[nH]ncc2cc(NS(=O)(=O)c3ccccc3)ccc12 [Sample I-65] | 0.01
51 | CC(=O)Oc1ccc2cn[nH]c(=O)c2c1 [Sample I-69] | 0.31
52 | CN(C)c1ccc2cn[nH]c(=O)c2c1 [Sample I-74] | −0.83

Assay: Measurement of acid dissociation constant pKa by potentiometric titration
Format: physicochemical
Conditions: compound of formula (1) or (2); tetrahydrofuran/water (3/2), 25° C.; Table 2
Experimental: Using an automatic potentiometric titration meter, Kyoto Electronic Industry's AT-420, the acid dissociation constant (pKa) of the conjugate acid of the compound of formula (1) in a mixed solution of tetrahydrofuran and water (3/2) was measured at 25° C.
Using an automatic potentiometric titration meter, Kyoto Electronic Industry's AT-420, the acid dissociation constant (pKa) of the conjugate acid of the silver iodide complex-forming agent in a mixed solution of tetrahydrofuran and water (3/2) was measured at 25° C.

Row | pKa of Conjugate Acid | SMILES
53 | 5.4 | Cc1nnc(C)c(C)c1C [Sample F-404]
54 | 3.6 | c1ccc(-c2ccnnc2)cc1 [Sample F-405]

Row | SMILES | pKa of Conjugate Acid
55 | O=C(Nc1ccncc1)c1ccccc1 [Sample F-325] | 4.2

Same assay, conditions: conjugate acid of the silver iodide complex-forming agent; tetrahydrofuran/water (3/2), 25° C.; Table 5

Row | pKa | SMILES
56 | 5.4 | Cc1nnc(C)c(C)c1C [Sample F-404]
57 | 3.6 | c1ccc(-c2ccnnc2)cc1 [Sample F-405]

Row | SMILES | pKa
58 | O=C(Nc1ccncc1)c1ccccc1 [Sample F-325] | 4.2

Same assay, conditions: conjugate acid of the silver iodide complex-forming agent; tetrahydrofuran/water (3/2), 25° C.; Table 6

Row | SMILES | pKa
59 | O=C(Nc1ccncc1)c1ccccc1 [Sample F-325] | 4.2

Same assay, conditions: conjugate acid of the silver iodide complex-forming agent; tetrahydrofuran/water (3/2), 25° C.; Table 8

Row | pKa | SMILES
60 | 5.4 | Cc1nnc(C)c(C)c1C [Sample F-404]
61 | 3.6 | c1ccc(-c2ccnnc2)cc1 [Sample F-405]

Row | SMILES | pKa
62 | O=C(Nc1ccncc1)c1ccccc1 [Sample F-325] | 4.2

Same assay, conditions: conjugate acid; tetrahydrofuran/water (3/2), 25° C.; Table 1

Row | SMILES | Compound of Formula (1) or (2) pKa
63 | O=C(Nc1ccncc1)c1ccccc1 [Sample F-325] | 4.2

Same assay, conditions: conjugate acid; tetrahydrofuran/water (3/2), 25° C.; Table 3

Row | SMILES | Silver Iodide Complex-forming Agent pKa
64 | O=C(Nc1ccncc1)c1ccccc1 [Sample F-325] | 4.2

Same assay, conditions: tetrahydrofuran/water (3/2) mixed solution, compound of formula (1) or (2), 25° C., Table 2, read-out: pKa of Conjugate Acid

Row | pKa | SMILES
65 | 4.2 | c1cc2cnncc2s1 [Sample F-421]

Assay: Retention of absorbance at 415 nm after heat development, Examples 3 and 4
Conditions: A/B×100 (after/before heat development), development 24 seconds, grain size 0.12 μm, Example 3
Experimental: as §1
Using a spectral photometer U-4100 (manufactured by Hitachi) equipped with an integrating sphere, the spectral absorbance of each sample was measured. The change rate of the absorbance at 415 nm of each sample before heat development and that after heat development was measured. Apart from the above samples, silver iodide-free sample was prepared, and the absorbance thereof at 415 nm was used as a base standard. The retention of absorbance of each sample was computed according to the formula mentioned below. The smaller the retention, the larger the reduction in absorption, which is preferable.
Retention of Absorbance (%)=A/B×100
as §2, §3

Row | SMILES | Silver Iodide Absorption Retention (%)
66 | CC(C)c1ccc2cnncc2c1 [6-isopropylphthalazine] | more effective than phthalazine
67 | c1ccc2cnncc2c1 [phthalazine, Phthalazine] | effective for reducing the absorption intensity
